Measured values taken from patent EP0892802B1, “SPIRO(CYCLOPENT(B)INDOLE-PIPERIDINES) AND N-PHENYL-HYDRAZON INTERMEDIATES FOR THEIR PREPARATION, BOTH BEING ACETYLCHOLINESTERASE AND MAO INHIBITORS” (priority 1996, dated 1997).

Columns and labels:
monoamine oxidase-A = biological target: T1, monoamine oxidase-A (Rattus norvegicus, UniProt P21396); assay: in vitro inhibition of monoamine oxidase assay (modified Kindt), MAO-A; assay type: biochemical, Male Wistar rats; details: rat whole brain minus cerebellum, mitochondrial P2 pellet; substrate [3H]-5-hydroxytryptamine 200 µM; preincubated 15 minutes, incubated 30 minutes at 37°C; log-probit analysis
T1 construct: serves as the tissue source for mitochondrial monoamine oxidase; from tissue; host or cells: rat whole brain minus cerebellum, P2 (crude mitochondrial) pellet
T1 sequence (P21396 1-526): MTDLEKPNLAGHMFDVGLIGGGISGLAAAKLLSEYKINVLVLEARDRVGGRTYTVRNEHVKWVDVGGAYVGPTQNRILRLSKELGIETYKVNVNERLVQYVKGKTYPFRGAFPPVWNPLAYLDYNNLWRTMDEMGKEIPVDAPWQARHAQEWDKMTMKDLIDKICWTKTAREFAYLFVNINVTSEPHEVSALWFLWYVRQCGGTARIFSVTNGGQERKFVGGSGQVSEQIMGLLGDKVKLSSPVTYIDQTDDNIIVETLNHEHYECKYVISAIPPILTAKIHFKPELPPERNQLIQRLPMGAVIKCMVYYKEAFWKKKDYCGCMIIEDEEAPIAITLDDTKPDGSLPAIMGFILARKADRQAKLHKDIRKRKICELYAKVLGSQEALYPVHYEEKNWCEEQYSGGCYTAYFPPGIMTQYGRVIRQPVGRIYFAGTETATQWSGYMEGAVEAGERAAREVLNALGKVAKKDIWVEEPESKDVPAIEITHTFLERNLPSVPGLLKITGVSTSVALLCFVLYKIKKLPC
Procedure: (§1) In this assay, a modification of an assay described by M. V. Kindt, et al., Europ.
The following reagents are prepared: • 1. Phosphate buffer (0.5 M), pH 7.4; 134.4 g dibasic sodium phosphate heptahydrate q.s. to 1 liter in distilled water (A) 17.3 g monobasic sodium phosphate q.s. to 250 ml in distilled water (B) Adjust pH of A to 7.4 by slowly adding B (volumes as needed) Dilute 1:10 in distilled water (0.05 M phosphate buffer, pH 7.4) • 2. 0.25 M Sucrose (phosphate buffered): 21.4 g sucrose, q.s. to 250 ml with 0.05 M phosphate buffer • 3. Substrate for monoamine oxidase-A: • a. serotonin creatine sulphate (5-hydroxytryptamine) is obtained from Sigma Chemical Company. A 5 mM stock solution is made up in 0.01 N-hydrochloric acid. The solution is used to dilute the specific activity of the [^3H]-hydroxytryptamine. • b. [^3H]-5-hydroxytryptamine binoxalate (20-30 Ci/mmol) is obtained from New England Nuclear. • c. Add 12 µl of [^3H]-5-hydroxytryptamine to 2 ml of the 5 mM 5-hydroxytryptamine solution. (Final amine concentration in the assay is 200 µM: see below.) • 4. Substrate for monoamine oxidase-B • a. β-phenethylamine is obtained from Sigma Chemical Company. A 5 mM stock solution is made up in 0.01 N-hydrochloric acid. The solution is used to dilute the specific activity of the [^14C]-β-phenethylamine. • b. β-[ethyl-1-^14C]-phenethylamine hydrochloride (40-50 mCi/mmol) is obtained from New England Nuclear. • c. Add 12 µl of [^14C]-β-phenethylamine to 2 ml of the 5 mM β-phenethylamine solution. (Final amine concentration in the assay is 200 µM: see below.) • 5. Equal amounts of monoamine oxidase-A (5-hydroxytryptamine) and monoamine oxidase-B (β-phenethylamine) substrates are combined for simultaneously testing both monoamine oxidase types, i.e., mixed stock solution of 2.5 mM 5-hydroxytryptamine and 2.5 mM β-phenethylamine. 40 µl of this mixed solution gives a 200 µM final concentration of each amine in the assay. […]

acetylcholinesterase = biological target: T2, acetylcholinesterase (Rattus norvegicus, UniProt P37136); assay: biochemical; design: species or system Male Wistar rats; details: rat corpora striata homogenate; preincubated 10 minutes at 37°C; acetylthiocholine substrate 5 millimolar final; log-probit analysis; read-out: Inhibition of Acetylcholinesterase Activity IC50
T2 construct: corpora striata dissected free, weighted and homogenized in 19 volumes; from tissue; host or cells: rat brain corpora striata, crude homogenate
T2 sequence (P37136 32-614): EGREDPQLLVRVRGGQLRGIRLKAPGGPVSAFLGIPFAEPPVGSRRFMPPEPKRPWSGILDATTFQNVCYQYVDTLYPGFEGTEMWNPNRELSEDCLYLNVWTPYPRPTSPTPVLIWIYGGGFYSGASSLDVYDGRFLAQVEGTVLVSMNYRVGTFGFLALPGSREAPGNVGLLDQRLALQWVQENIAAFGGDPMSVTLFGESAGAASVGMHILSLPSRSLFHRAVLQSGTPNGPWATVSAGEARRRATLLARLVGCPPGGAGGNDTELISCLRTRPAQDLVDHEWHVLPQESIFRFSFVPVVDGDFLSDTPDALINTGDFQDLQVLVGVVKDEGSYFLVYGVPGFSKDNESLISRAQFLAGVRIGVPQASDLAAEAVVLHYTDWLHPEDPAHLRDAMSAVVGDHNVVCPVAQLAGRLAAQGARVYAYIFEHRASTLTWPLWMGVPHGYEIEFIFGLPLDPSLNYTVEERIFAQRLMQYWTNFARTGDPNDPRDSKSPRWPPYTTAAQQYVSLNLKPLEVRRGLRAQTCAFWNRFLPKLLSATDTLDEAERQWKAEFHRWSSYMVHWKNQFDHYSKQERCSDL
Procedure: 0.05M Phosphate Buffer (pH 7.2) A solution of monobasic sodium phosphate monohydrate (6.85 g) in distilled water (100 ml) is added to a solution of dibasic sodium phosphate heptahydrate (13.4 g) and distilled water (100 ml) until a pH of 7.2 was attained. The solution was diluted 1 to 10 with distilled water. • 2. […] 5,5-Dithiobisnitrobenzoic acid in Buffer The 0.05M Phosphate Buffer (pH 7.2) was added to 5.5-dithiobisnitrobenzoic acid to a total volume of 100 ml, i.e., a quantity sufficient (gs) to 100 ml. • 4. Stock Solution of Drug A 2 millimolar stock solution of the test drug is prepared in a quantity sufficient of either acetic acid or dimethyl sulfoxide to volume with 5,5-dithiobisnitrobenzoic acid in Buffer. […]
Male Wistar rats are decapitated, brains rapidly removed, corpora striata dissected free, weighted and homogenized in 19 volumes (approximately 7 mg protein/ml) of 0.05M Phosphate Buffer (pH 7.2) using a Potter-Elvejhem homogenizer. […] Enzyme activity is measured with a Beckman DU-50 spectrophotometer with the following software and instrument settings: • 1. […]
Blank values are determined for each run to control for non-enzymatic hydrolysis of substrate and these values are automatically subtracted by the Kindata program available on kinetics soft-pac module. This program also calculates the rate of absorbance change for each cuvette. […]

monoamine oxidase-B = biological target: T3, monoamine oxidase-B (Rattus norvegicus, UniProt P19643); assay: in vitro inhibition of monoamine oxidase assay (modified Kindt), MAO-B; assay type: biochemical, Male Wistar rats; details: rat whole brain minus cerebellum, mitochondrial P2 pellet; substrate [14C]-β-phenethylamine 200 µM; preincubated 15 minutes, incubated 30 minutes at 37°C; log-probit analysis
T3 construct: serves as the tissue source for mitochondrial monoamine oxidase; from tissue; host or cells: rat whole brain minus cerebellum, P2 (crude mitochondrial) pellet
T3 sequence (P19643 1-520): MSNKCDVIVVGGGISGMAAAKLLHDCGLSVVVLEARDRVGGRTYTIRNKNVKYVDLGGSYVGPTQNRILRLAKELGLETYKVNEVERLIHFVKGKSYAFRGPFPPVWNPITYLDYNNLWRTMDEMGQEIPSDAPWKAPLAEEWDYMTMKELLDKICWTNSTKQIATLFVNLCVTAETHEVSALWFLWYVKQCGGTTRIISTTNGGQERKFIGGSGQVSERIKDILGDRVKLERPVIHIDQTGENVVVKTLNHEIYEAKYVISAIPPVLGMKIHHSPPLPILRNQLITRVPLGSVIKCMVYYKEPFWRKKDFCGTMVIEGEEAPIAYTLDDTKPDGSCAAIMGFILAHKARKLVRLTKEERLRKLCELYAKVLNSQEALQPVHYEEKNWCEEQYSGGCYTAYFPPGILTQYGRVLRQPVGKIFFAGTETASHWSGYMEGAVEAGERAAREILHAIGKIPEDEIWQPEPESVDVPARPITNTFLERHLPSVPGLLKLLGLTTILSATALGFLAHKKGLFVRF
Procedure: as §1
The following reagents are prepared: • 1. Phosphate buffer (0.5 M), pH 7.4; 134.4 g dibasic sodium phosphate heptahydrate q.s. to 1 liter in distilled water (A) 17.3 g monobasic sodium phosphate q.s. to 250 ml in distilled water (B) Adjust pH of A to 7.4 by slowly adding B (volumes as needed) Dilute 1:10 in distilled water (0.05 M phosphate buffer, pH 7.4) • 2. 0.25 M Sucrose (phosphate buffered): 21.4 g sucrose, q.s. to 250 ml with 0.05 M phosphate buffer • 3. Substrate for monoamine oxidase-A: • a. serotonin creatine sulphate (5-hydroxytryptamine) is obtained from Sigma Chemical Company. A 5 mM stock solution is made up in 0.01 N-hydrochloric acid. The solution is used to dilute the specific activity of the [^3H]-hydroxytryptamine. • b. [^3H]-5-hydroxytryptamine binoxalate (20-30 Ci/mmol) is obtained from New England Nuclear. • c. Add 12 µl of [^3H]-5-hydroxytryptamine to 2 ml of the 5 mM 5-hydroxytryptamine solution. (Final amine concentration in the assay is 200 µM: see below.) • 4. Substrate for monoamine oxidase-B • a. β-phenethylamine is obtained from Sigma Chemical Company. A 5 mM stock solution is made up in 0.01 N-hydrochloric acid. […]

Row | Compound | IC50 (monoamine oxidase-A) | IC50 (acetylcholinesterase) | IC50 (monoamine oxidase-B)
1 | COc1cc(Br)c2oc(C3CCNCC3)cc2c1 [brofaromine, reference compound] | 0.18 µM | – | –
2 | COc1cccc(CN2CCC3(CCc4c3n(C)c3ccccc43)CC2)c1 [1,4-Dihydro-1'-(3-methoxyphenyl)methyl-4-methylspiro[cyclopent[b]indole-3(2H), 4'piperidine]] | 51.2 µM | – | –
3 | CNC(=O)Oc1ccc2c(c1)c1c(n2C)C2(CC1)CCN(Cc1ccccc1)CC2 [1,4-Dihydro-4-methyl-7-methylaminocarbonyloxy-1'-phenylmethylspiro[cyclopent[b]indole-3(2H), 4'-piperidine]] | – | 10.5 µM | –
4 | COc1ccc(CN2CCC3(CCc4c3n(C)c3ccccc43)CC2)cc1 [1,4-Dihydro-1'-(4-methoxyphenyl)methyl-4-methylspiro[cyclopent[b]indole-3(2H), 4'-piperidine]] | 98.6 µM | 65.2 µM | 125 µM
